From patent US20190062749A1, “SIRNA, PHARMACEUTICAL COMPOSITION AND CONJUGATE WHICH CONTAIN SIRNA, AND USES THEREOF” (priority 2015, published 2019)
Where two headings read alike, the source gives them in different places. Oligonucleotides are written 5' to 3', each unit as a sugar letter and its base; * is a phosphorothioate linkage, no mark a phosphodiester; rarer units and linkages stand in square brackets, end groups in braces. Plain capitals give the bases only. d = 2'-deoxy (DNA); m = 2'-O-methyl; r = 2'-OH (RNA); f = 2'-fluoro

How the values were obtained:
[1] = Stability of siRNAs in human plasma in vitro (gel, ratio of the longest fragments RL); assay type: in vitro ADME
Procedure: The siRNAs (20 μM, 10 μl) obtained in Preparation Example 1 were incubated with 50% human plasma (HP) at 37° C. in vitro for a certain time and samples were taken therefrom. Specifically, 10 μl samples were taken at 0, 2, 4, 6, 8, 24 and 48 hours respectively and immediately snap frozen in liquid nitrogen, followed by cryopreservation at −80° C. for future use. 20 wt % non-denaturing polyacrylamide gel was formulated, and 10 μl 5-fold diluted above samples (dilution solution: 1×PBS buffer at pH 7.4) and 4 μl loading buffer (20 mM EDTA, 36 wt % glycerol, 0.06 wt % bromophenol blue) were mixed and then loaded into the gel to perform electrophoresis for about 60 minutes under 80 mA constant current. After electrophoresis finished, the gel was stained with 1× Sybr Gold dye (Invitrogen, Cat. 11494) for 15 minutes followed by imaging.
The ratio of the longest fragments remained after incubating the test siRNAs and control siRNAs with human plasma to the longest fragments of the siRNAs without the treatment of human plasma (i.e., the markers shown in FIG. 3) (also referred to as ratio of the longest fragments, RL) is calculated by reading the grayscale values quantitatively.

HBV gene = settings: prior application CN102140461B; cited from earlier work
[2] = prior application CN102140461B; cited from earlier work

| Substance | RL (ratio of the longest fragments) 0 h ([1]; 50% human plasma, 37° C., 0 h) | RL (ratio of the longest fragments) 2 h ([1]; 50% human plasma, 37° C., 2 h) | RL (ratio of the longest fragments) 4 h ([1]; 50% human plasma, 37° C., 4 h) | RL (ratio of the longest fragments) 6 h ([1]; 50% human plasma, 37° C., 6 h) | RL (ratio of the longest fragments) 8 h ([1]; 50% human plasma, 37° C., 8 h) | RL (ratio of the longest fragments) 24 h ([1]; 50% human plasma, 37° C., 24 h) | RL (ratio of the longest fragments) 48 h ([1]; 50% human plasma, 37° C., 48 h) | activity at cell level compared to unmodified siRNA CA1 (HBV gene) | stability in blood [2] | band position / full-length state on gel (FIG. 3) ([1]; 50% human plasma, up to 48 h) | RL (ratio of the longest fragments) 0 h [1] | RL (ratio of the longest fragments) 2 h [1] | RL (ratio of the longest fragments) 4 h [1] | RL (ratio of the longest fragments) 6 h [1] | RL (ratio of the longest fragments) 8 h [1] | RL (ratio of the longest fragments) 24 h [1] | RL (ratio of the longest fragments) 48 h [1] |
| --- | --- | --- | --- | --- | --- | --- | --- | --- | --- | --- | --- | --- | --- | --- | --- | --- | --- |
| 1d: sense CmCmUmUmGAGGCmAUmACmUmUmCmAAAdTdT, antisense UUmUfGAAGUfAUfGCCUfCAAGGdTdT (sense mCmCmUmUrGrArGrGmCrAmUrAmCmUmUmCrArArAdTdT; antisense rUmUfUrGrArArGfUrAfUrGrCrCfUrCrArArGrGdTdT) | 100.0% | 90.0% | 97.2% | 93.3% | 87.5% | 55.7% | 65.1% |  |  |  |  |  |  |  |  |  |  |
| 2d: sense CmCmUmUmGAGGCmAUmACmUmUmCmAAAdTdT, antisense UfUUfGAAGUfAUfGCCUfCAAGGdTdT (sense mCmCmUmUrGrArGrGmCrAmUrAmCmUmUmCrArArAdTdT; antisense fUrUfUrGrArArGfUrAfUrGrCrCfUrCrArArGrGdTdT) | 100.0% | 97.6% | 88.2% | 82.2% | 84.5% | 82.1% | 78.4% |  |  |  |  |  |  |  |  |  |  |
| 3d: sense CmCmUmUmGAGGCmAUmACmUmUmCmAAAdTdT, antisense UfUmUGAAGUfAUfGCCUfCAAGGdTdT (sense mCmCmUmUrGrArGrGmCrAmUrAmCmUmUmCrArArAdTdT; antisense fUmUrUrGrArArGfUrAfUrGrCrCfUrCrArArGrGdTdT) | 100.0% | 96.6% | 99.6% | 93.3% | 87.1% | 75.0% | 41.6% |  |  |  |  |  |  |  |  |  |  |
| 8d: sense CmCmUmUmGAGGCmAUmACmUmUmCmAAAdTdT, antisense UfUmUfGAAGUAUfGCCUfCAAGGdTdT (sense mCmCmUmUrGrArGrGmCrAmUrAmCmUmUmCrArArAdTdT; antisense fUmUfUrGrArArGrUrAfUrGrCrCfUrCrArArGrGdTdT) | 100.0% | 78.2% | 72.7% | 59.7% | 48.3% | 34.0% | 25.9% |  |  |  |  |  |  |  |  |  |  |
| 14d: sense CmCmUmUmGAGGCmAUmACmUmUmCmAAAdTdT, antisense UfUmUfGAAGUfAUfGCCUCAAGGdTdT (sense mCmCmUmUrGrArGrGmCrAmUrAmCmUmUmCrArArAdTdT; antisense fUmUfUrGrArArGfUrAfUrGrCrCrUrCrArArGrGdTdT) | 100.0% | 94.6% | 90.0% | 85.6% | 86.0% | 78.0% | 84.6% |  |  |  |  |  |  |  |  |  |  |
| A4: siRNA of CN102140461B; sense CmCmUmUmGAGGCmAUmACmUmUmCmAAAdTdT, antisense UfUmUfGAAGUfAUfGCCUfCAAGGdTdT (sense CCUUGAGGCAUACUUCAAATT; antisense UUUGAAGUAUGCCUCAAGGTT; sense: DNA at T, 2'-O-methyl at CU, RNA at AG, backbone not given here; antisense: sugars from the 5' end fmfrrrrfrfrrrfrrrrrdd, backbone not given here) [reference compound] | 100.0% | 97.5% | 93.7% | 106.0% | 91.7% | 90.0% | 81.2% | substantially equal inhibitory activity as that of siRNA CA1 | increased stability in blood | band thereof significantly shifts downward gradually |  |  |  |  |  |  |  |
| NC-bas: negative control siRNA; sense UmUmCmUmCmCmGAACmGUmGUmCmACmGUmdTdT, antisense ACmGUfGACfACfGUfUfCfGGAGAAdTdT (sense UUCUCCGAACGUGUCACGUTT; antisense ACGUGACACGUUCGGAGAATT; chemistry not fully specified) [reference compound] |  |  |  |  |  |  |  |  |  |  | 100.0% | 95.1% | 89.8% | 86.8% | 85.3% | 91.1% | 90.8% |
| NC-pos: negative control siRNA; sense UmUmCmUmCCGAAmCGmUGmUmCmAmCGUdTdT, antisense AfCmGfUGACAfCGfUUCGfGAGAAdTdT (sense UUCUCCGAACGUGUCACGUTT; antisense ACGUGACACGUUCGGAGAATT; chemistry not fully specified) [reference compound] |  |  |  |  |  |  |  |  |  |  | 100.0% | 93.4% | 95.9% | 84.9% | 88.6% | 87.1% | 90.0% |
| NC: negative control siRNA; sense UUCUCCGAACGUGUCACGUdTdT, antisense ACGUGACACGUUCGGAGAAdTdT (sense UUCUCCGAACGUGUCACGUTT; antisense ACGUGACACGUUCGGAGAATT; further chemistry not given here) [reference compound] |  |  |  |  |  |  |  |  |  |  | 100.0% | 83.9% | 69.7% | 58.4% | 52.6% | 36.2% | 26.0% |
| X2M2(S++): sense CmCmUmUmGAGGCmAUmACmUmUmCmAAAdT-s-dT, antisense UfUmUfGAAGUfAUGCCUfCAAGGdT-s-dT (sense CCUUGAGGCAUACUUCAAAT; antisense UUUGAAGUAUGCCUCAAGGT; chemistry not fully specified) | 100.0% | 101.5% | 98.2% | 98.6% | 93.0% | 92.1% | 90.9% |  |  |  |  |  |  |  |  |  |  |
| X2M2(S−−): sense CmCmUmUmGAGGCmAUmACmUmUmCmAAAdTdT, antisense UfUmUfGAAGUfAUGCCUfCAAGGdTdT (as printed in the source, key not given here) | 100.0% | 111.3% | 97.5% | 90.2% | 96.1% | 109.1% | 93.9% |  |  |  |  |  |  |  |  |  |  |
